{"source": "patent US8142764B2", "about": "“Synthetic biofilm-inhibiting peptides” (priority 2008, dated 2012)", "key": {"[1]": {"test_system": "proteolytic activity of P. gingivalis", "type": "cell-based, Porphyromonas gingivalis", "settings": "intact cells pre-treated with inhibitor", "excerpt": "Inhibition of protease activity. The proteolytic activity of P. gingivalis was inhibited using a bacterial protease inhibitor cocktail (Sigma, St. Louis, Mo.) containing the following inhibitors: 4-(2-Aminoethyl)benzenesulfonyl fluoride hydrochloride (AEBSF), N-(trans-epoxysuccinyl)-L-leucine 4 guanidinobutylamide (E-64), sodium ethylenediaminetetra-acetate (EDTA), bestatin and pepstatin A. The inhibitor cocktail was suspended in dimethylsulfoxide (DMSO) (Sigma, St. Louis, Mo.) at the concentration recommended by the manufacturer."}, "[2]": {"test_system": "P. gingivalis/S. gordonii biofilm", "assay": "Inhibition of P. gingivalis adherence and biofilm formation on S. gordonii (open flow cell, confocal microcolony count)", "type": "cell-based, Porphyromonas gingivalis", "settings": "for inhibition of biofilm formation: peptide 3.38 μM", "experimental": "P. gingivalis adherence and biofilm formation. The adherence of intact P. gingivalis to S. gordonii cells and the subsequent formation of biofilms was carried out using an open flow system essentially as previously described by Amorin Daep et al. Infect Immun 74:5756-62 (2006) and Lamont et al. Microbiology 148:1627-36 (2002). The flow reactor comprised a Manostat Carter 4/8 cassette peristaltic pump (Fisher Scientific, Suwanee, Ga.) using 0.89 millimeter platinum-cured silicone tubing (Fisher Scientific, Suwanee, Ga.) and a BST FC 71 flow cell (Biosurface Technologies, Corp, Bozeman, Mont.). A single surface of a 15×40 mm cover glass (Fisher Scientific, Suwanee, Ga.) was coated with 0.22 μm filter sterilized saliva and incubated at 37° C. for 30 minutes. The saliva coated coverglass was then washed with sterile 1×PBS at a flow rate of 6 ml per hour for 30 minutes to remove unbound salivary constituents.\nS. gordonii DL-1 cells were harvested by centrifugation at 4000 rpm at 4° C. for 15 minutes and suspended in 25 ml of sterile 1×PBS. S. gordonii cells were labeled with 20 μl of hexidium iodide (1.6 mg/ml, Molecular Probes, Eugene, Oreg.) at 25° C. for 30 minutes in the dark and washed with PBS. Adherence of streptococci to the saliva coated cover glass was carried out by delivering S. gordonii cells to the flow chamber at a flow rate of 6 ml per hour for approximately 2 hours. Following inoculation with S. gordonii, the flow cell was washed with sterile 1×PBS for 30 minutes at 6 ml per hour to remove non-adherent bacteria from the cover glass.\nP. gingivalis ATCC 33277 cells were harvested by centrifugation at 4000 rpm at 4° C. for 45 minutes, suspended in 25 ml of sterile 1×PBS, and introduced into the flow cell at a flow rate of 6 ml per hour for 2 hours at 25° C. to allow P. gingivalis to adhere and accumulate on the streptococcal substrate. Flow cells were subsequently washed with sterile 1×PBS to remove non-adherent P. gingivalis cells. To visualize adherent P. gingivalis, rabbit anti-P. gingivalis 33277 polyclonal antibody diluted 3:5000 in 5 ml of sterile 1×PBS was flowed into the cell at a rate of 6 ml per hour. The flow cell was then washed with sterile 1×PBS for 1 hour, reacted with anti-rabbit IgG fluorescein isothiocyanate (FITC) conjugate (Sigma, St. Louis, Mo.) in sterile 1×PBS (1:5000) for 1 hour at 6 ml per hour, and received a final wash with sterile 1×PBS as above. Under these conditions, the streptococci bound to the saliva coated coverglass as a non-confluent layer comprising single cells and small aggregates. P. gingivalis subsequently adhered to and formed distinct microcolonies on the immobilized streptococci. The microcolonies were visualized and quantified by confocal microscopy as described below.\nConfocal microscopy and analysis of P. gingivalis biofilms. P. gingivalis-S. gordonii biofilms were visualized using an Olympus FluoView 500 confocal laser scanning microscope (Olympus, Pittsburgh, Pa.) under 600× magnification using an Argon laser for visualization of FITC labeling and the HeNe-G laser to visualize hexidium iodide labeled streptococci. The number and depth of FITC-labeled P. gingivalis microcolonies was determined from 30 to 60 randomly chosen frames using the FluoView software package provided by Olympus. Microcolony depth was determined by performing Z-plane scans from 0 μm to 30 μm above the coverglass surface. P. gingivalis microcolonies that formed on S. gordonii in the absence of peptide inhibitor ranged from 7 to 16 μm in depth under the experimental conditions used.\nInhibition of P. gingivalis adherence and bioflim formation. […] The P. gingivalis-peptide suspension was then introduced into the flow cell for 2 hours at a flow rate of 6 ml per hour as described above and P. gingivalis microcolonies were analyzed by confocal microscopy. Data was analyzed using GraphPad InStat3 (GraphPad Software Co.)."}, "[3]": {"test_system": "proteases produced by P. gingivalis", "assay": "Proteolytic degradation of BAR by P. gingivalis cells, culture supernatant or extracts (tricine gel, densitometry)", "type": "in vitro ADME, Porphyromonas gingivalis", "experimental": "Proteolytic degradation of BAR by P. gingivalis. One milliliter of mid-exponential phase cultures of P. gingivalis SMF, P. gingivalis KDP128, P. gingivalis KDP129, or P. gingivalis E8 was centrifuged at 8000 rpm for 5 minutes at 4° C. The bacterial pellet was washed 3 times with 1 ml of sterile 1×PBS (100 mM sodium phosphate, pH 7.4, 150 mM NaCl). […] For some experiments, digital images of the stained gels were obtained using Epson Stylus CX3810 flatbed scanner (Espson America, Inc., Long Beach, Calif.) and analyzed by densitometry using ImageJ software (found on the world-wide-web at rsbweb.nih.gov/ij/)."}, "[4]": {"test_system": "P. gingivalis/S. gordonii biofilm", "settings": "0.3 μM", "quoted_text": "P. gingivalis biofilm formation with S. gordonii. The formation of dual species P. gingivalis/S. gordonii biofilms was carried out essentially as previously described by Lamont et al (2002. Microbiology 148:1627-36.) and Daep et al. (Immun 74:5756-62 (2006); Infect Immun 76:3273-80 (2008)). The bacterial biofilms were cultured using a Manostat Carter 4/8 cassette peristaltic pump (Fisher Scientific, Suwanee, Ga.) with 0.89 millimeter platinum-cured silicone tubing (Fisher Scientific, Suwanee, Ga.) and BST FC 71 flow cells (Biosurface Technologies, Corp, Bozeman, Mont.). […]\nP. gingivalis cells were harvested by centrifugation at 4000 rpm at 4° C. for 45 minutes, suspended in 20 ml of sterile 1×PBS, and introduced into the flow cell at a flow rate of 6 ml per hour for 2 hours to allow the bacteria to adhere and accumulate on the streptococcal substrate. […] P. gingivalis microcolonies bound to immobilized streptococci were quantified by confocal microscopy as described below.\nThe bacteria were incubated with 0 and 0.845 μM peptide at ambient temperature for 30 minutes and introduced into the flow cell containing an existing streptococcal substrate for 2 hours at a flow rate of 6 ml per hour. Biofilm formation was analyzed by confocal microscopy as described below. Data was analyzed using GraphPad InStat3 software (GraphPad Software Co.) using a non-parametric analysis of variance (ANOVA). […]"}, "Mfa1": {"molecular_target": "Mfa1 (Porphyromonas gingivalis, UniProt B2RHG1)", "sequence (B2RHG1 50-563)": "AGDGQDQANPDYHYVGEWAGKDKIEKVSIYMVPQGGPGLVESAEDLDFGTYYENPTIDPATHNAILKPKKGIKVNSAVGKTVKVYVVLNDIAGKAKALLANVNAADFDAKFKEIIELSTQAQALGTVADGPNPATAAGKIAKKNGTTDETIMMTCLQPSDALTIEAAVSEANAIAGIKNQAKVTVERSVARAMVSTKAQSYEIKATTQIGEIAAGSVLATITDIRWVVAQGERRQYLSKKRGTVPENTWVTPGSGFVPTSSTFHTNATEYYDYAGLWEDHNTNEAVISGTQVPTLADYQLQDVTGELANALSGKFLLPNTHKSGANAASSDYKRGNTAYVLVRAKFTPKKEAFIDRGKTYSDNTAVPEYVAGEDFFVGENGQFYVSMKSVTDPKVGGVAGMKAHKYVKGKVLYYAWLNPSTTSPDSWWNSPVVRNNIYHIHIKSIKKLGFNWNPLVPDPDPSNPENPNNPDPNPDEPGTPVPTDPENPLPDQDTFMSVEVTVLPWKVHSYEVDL", "settings": "read-out: dissociation constant of the BAR-Mfa1 interaction; previously calculated; cited from earlier work"}, "[5]": {"assay": "Circular dichroism (CD) spectroscopy, K2D secondary structure estimate", "type": "physicochemical", "settings": "1.4 mM peptide in phosphate buffer", "experimental": "Circular dichroism (CD) spectroscopy. CD experiments were carried out at 25° C. using Jasco J-810 spectropolarimeter (Jasco, Easton, Md.). A 40 μl sample of peptide at a concentration of 1.4 mM in filter sterilized 0.1 M phosphate buffer (pH=7.2) was analyzed in a 0.01 cm quartz cuvette (Starna Cells, Inc., Atascadero, Calif.) using the following parameters: sensitivity=100 mdeg, start wavelength=340 nm, end wavelength=180 nm, continuous scanning mode at 200 nm/minute, response=1 second, and bandwidth=1 nm. Nitrogen was flushed into the system at a rate of […] during each experiment. A total of 10 scans were accumulated and averaged and the appropriate blanks were subtracted from the spectra. The resulting spectra were expressed in molar ellipticity. Normalized CD data were analyzed using K2D software (on the world-wide web at embl-heidelberg.de/˜andrade/k2d.html)) to estimate α-helical, β-sheet, and random coil content."}}, "note": "“Also recorded” adds a separate entry of the source. Where no end group is shown, it is not given here."}
{"molecule": "CC(C)C[C@H](NC(=O)[C@H]1O[C@@H]1C(=O)O)C(=O)NCCCCN=C(N)N", "note": "(relative stereo) [E-64, N-(trans-epoxysuccinyl)-L-leucine 4 guanidinobutylamide]", "values": [{"measurement": "concentrations that prevent cleavage of BAR by P. gingivalis (in words)", "setting": "[1]", "value": "mM range"}]}
{"molecule": "Cl.NCCc1ccc(S(=O)(=O)F)cc1", "note": "[AEBSF, 4-(2-Aminoethyl)benzenesulfonyl fluoride hydrochloride]", "values": [{"measurement": "concentrations that prevent cleavage of BAR by P. gingivalis (in words)", "setting": "[1]", "value": "mM range"}]}
{"molecule": "O=C([O-])CN(CCN(CC(=O)[O-])CC(=O)[O-])CC(=O)[O-].[Na+].[Na+].[Na+].[Na+]", "note": "[EDTA, sodium ethylenediaminetetra-acetate]", "values": [{"measurement": "concentrations that prevent cleavage of BAR by P. gingivalis (in words)", "setting": "[1]", "value": "mM range"}]}
{"molecule": "CC(C)C[C@H](NC(=O)[C@@H](O)[C@H](N)Cc1ccccc1)C(=O)O", "note": "[bestatin]", "values": [{"measurement": "concentrations that prevent cleavage of BAR by P. gingivalis (in words)", "setting": "[1]", "value": "mM range"}]}
{"molecule": "LEAAPKKVPGLLKKANITVKGAFQLFS [BAR-X]", "values": [{"measurement": "inhibition of biofilm formation", "setting": "[2]", "value": "~15", "unit": "%"}]}
{"molecule": "LEAAPKKVQDLLKKANITVKGAFQLFS [BAR]", "values": [{"measurement": "inhibition of P. gingivalis microcolony formation", "setting": "[2]; peptide 0.34 μM", "value": 3, "unit": "%"}, {"measurement": "inhibition of P. gingivalis microcolony formation", "setting": "[2]; peptide 0.85 μM", "value": 7, "unit": "%"}, {"measurement": "inhibition rate of P. gingivalis/S. gordonii biofilm formation", "setting": "[2]; peptide 1.7 μM", "value": 80, "unit": "%"}, {"measurement": "inhibition of biofilm formation", "setting": "[2]", "value": "~75", "unit": "%"}, {"measurement": "degradation by P. gingivalis 33277 (in words)", "setting": "[3]; 5 μg BAR, wild type cells", "value": "immediate degradation"}, {"measurement": "degradation by P. gingivalis culture supernatant (in words)", "setting": "[3]; 5 μg peptide, 37° C., 0 to 60 minutes", "value": "more slowly degraded; also recorded: time dependent degradation"}, {"measurement": "proteolytic cleavage by P. gingivalis culture extracts (in words)", "setting": "[3]; 1 hour incubation, 10-20% Tris-Tricine gel", "value": "slowly degraded"}, {"measurement": "relative density (R.D.) of remaining BAR peptide", "setting": "[3]; E8 whole cells, within 5 minutes (first value of 'R.D.=32.5 vs. 21.6')", "value": 32.5}, {"measurement": "relative density (R.D.) of remaining BAR peptide", "setting": "[3]; P. gingivalis SMF1 with rMfa1, T=5 minutes, loading control R.D.=61.07", "value": 47.3}, {"measurement": "relative density (R.D.) of remaining BAR peptide", "setting": "[3]; P. gingivalis SMF1 with rMfa1, T=30 minutes, loading control R.D.=61.07", "value": 8.2}, {"measurement": "relative density (R.D.) of remaining BAR peptide", "setting": "[3]; P. gingivalis SMF1 without rMfa1, T=5 minutes, loading control R.D.=61.07", "value": "−5.75"}, {"measurement": "relative density (R.D.) of remaining BAR peptide", "setting": "[3]; P. gingivalis SMF1 without rMfa1, T=30 minutes, loading control R.D.=61.07", "value": "−20.32"}, {"measurement": "relative density (R.D.) of remaining BAR peptide", "setting": "[3]; gingipain deficient P. gingivalis KDP128, T=5 minutes, loading control R.D.=115.85", "value": 96.23}, {"measurement": "relative density (R.D.) of remaining BAR peptide", "setting": "[3]; gingipain deficient P. gingivalis KDP128, T=10 minutes, loading control R.D.=115.85", "value": 115.85}, {"measurement": "degradation by P. gingivalis E8 (lacks Arg-X gingipains), in words", "setting": "[3]; intact cells", "value": "rapidly degraded; also recorded: immediate degradation"}, {"measurement": "degradation by P. gingivalis KDP128 (lacks Lys-X and Arg-X gingipains), in words", "setting": "[3]; intact cells", "value": "Little degradation was observed after incubation for 10 minutes; also recorded: attenuated proteolytic activity against the peptide"}, {"measurement": "degradation by P. gingivalis KDP129 (lacks Lys-X gingipains), in words", "setting": "[3]; intact cells", "value": "attenuated degradation; also recorded: Little degradation was observed"}, {"measurement": "degradation by intact P. gingivalis cells in the presence of purified Mfa1 (in words)", "setting": "[3]; pre-incubation with Mfa1", "value": "little degradation occurred after 5 minutes; also recorded: protection from proteolytic degradation"}, {"measurement": "relative density (R.D.) of remaining BAR peptide, comparator", "setting": "[3]; second value of 'R.D.=32.5 vs. 21.6', apparently wild type 33277, 5 minutes", "value": 21.6}, {"measurement": "inhibitory activity on biofilm formation", "setting": "[4]", "value": "~50", "unit": "%"}, {"measurement": "Kd", "setting": "Mfa1", "value": "~900", "unit": "nM"}]}
{"molecule": "LEAAPKKVQDLLKKARITIKGAFQLFS [BAR-II]", "values": [{"measurement": "biofilm inhibitory activity (in words)", "setting": "[2]", "value": "more potent inhibitor of P. gingivalis adherence and biofilm development than BAR"}, {"measurement": "fold difference in I50 / potency relative to BAR", "setting": "[2]; I50 0.52 μM versus 1.25 μM", "value": "approximately 2.5 fold"}, {"measurement": "IC50", "setting": "[2]; P. gingivalis pre-incubated with peptide, streptococcal substrate, read-out: I50 for inhibition of P. gingivalis adherence and biofilm formation", "value": 520, "unit": "nM"}, {"measurement": "inhibition of P. gingivalis microcolony formation", "setting": "[2]; peptide 0.34 μM", "value": 25, "unit": "%"}, {"measurement": "inhibition of P. gingivalis microcolony formation", "setting": "[2]; peptide 0.85 μM", "value": 82, "unit": "%"}, {"measurement": "α-helix content", "setting": "[5]", "value": 28, "unit": "%"}]}
{"molecule": "LQAAPKKVQDLLKKANITVKGAFQLFS [BAR-XIV]", "values": [{"measurement": "inhibitory activity compared to BAR (in words)", "setting": "[2]; peptide 1.7 μM", "value": "significant decrease in inhibitory activity"}, {"measurement": "restoration of inhibitory activity (in words)", "setting": "[2]; peptide 17 μM", "value": "did not show partial or full restoration"}]}
